Data as given in the NIST ThermoML archive (doi:10.1021/je100208e).

Columns and labels:
[1] = Molar enthalpy of transition or fusion; conditions: Crystal; DSC
[2] = for vapor or sublimation pressure: Knudsen effusion; for Normal melting temperature: DTA

c1ccc2cc3ccccc3cc2c1 [anthracene]
Conditions	Molar enthalpy of transition or fusion [kJ/mol]
[1]	27.8

[2], Crystal
Conditions	vapor or sublimation pressure [kPa]
300 K	1.192e-06
305 K	2.257e-06
310 K	4.186e-06
315 K	7.613e-06
320 K	1.359e-05
325 K	2.383e-05
330 K	4.109e-05
335 K	6.969e-05
340 K	0.0001164
345 K	0.0001915
350 K	0.0003107
355 K	0.0004972
360 K	0.0007852
365 K	0.001225
370 K	0.001888
373 K	0.002433

Conditions	Normal melting temperature [°C]
[2], Crystal	217

c1cc2ccc3cccc4ccc(c1)c2c34 [pyrene]
Conditions	Molar enthalpy of transition or fusion [kJ/mol]
[1]	16.2

[2], Crystal 1
Conditions	vapor or sublimation pressure [kPa]
315 K	4.79e-06
320 K	8.55e-06
325 K	1.499e-05
330 K	2.584e-05
335 K	4.382e-05
340 K	7.317e-05
345 K	0.0001204
350 K	0.0001952
355 K	0.0003124
360 K	0.0004933
365 K	0.0007693
370 K	0.001185
375 K	0.001806
378 K	0.002312

Conditions	Normal melting temperature [°C]
[2], Crystal	151
